Reference: ChEMBL document CHEMBL1201862, “PubChem BioAssay data set” (2004)
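Test compounds were applied to cells in 96-well plates for 48 hours at 5 doses. GI50 is the concentration that inhibits growth by half.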 The source made the active and inactive calls. Cut-off read from the data, not from the text of the source: active = GI50 up to about 1.1 µM and inactive = higher.

Tests used:
Assay in all cases: NCI-60 cell line screen, 48 h
[1] = system: CAKI-1
[2] = system: CCRF-CEM
[3] = system: HOP-62
[4] = system: M14
[5] = system: SF-295
[6] = system: Malme-3M
[7] = system: RPMI-8226
[8] = system: HOP-92
[9] = system: SF-539
[10] = system: 786-0
[11] = system: M19-MEL
[12] = system: LOX IMVI
[13] = system: U-251
[14] = system: SNB-19
[15] = system: OVCAR-8
[16] = system: SNB-75
[17] = system: DLD-1
[18] = system: SR
[19] = system: ACHN
[20] = system: SNB-78
[21] = system: NCI-H460
[22] = system: HCT-116
[23] = system: EKVX
[24] = system: SF-268
[25] = system: HL-60
[26] = system: UO-31
[27] = system: IGROV-1
[28] = system: A498
[29] = system: NCI-H226
[30] = system: KM-20L2
[31] = system: NCI-H23
[32] = system: MOLT-4
[33] = system: SK-MEL-2
[34] = system: HCC 2998
[35] = system: LXFL 529
[36] = system: SN12C
[37] = system: HOP-18
[38] = system: TK-10
[39] = system: DMS-273
[40] = system: HT-29
[41] = system: HCT-15
[42] = system: OVCAR-5
[43] = system: OVCAR-4
[44] = system: SK-MEL-5
[45] = system: COLO 205
[46] = system: UACC-62
[47] = system: RXF 393
[48] = system: NCI-H522
[49] = system: OVCAR-3
[50] = system: KM12
[51] = system: K562
[52] = system: SW-620
[53] = system: UACC-257
[54] = system: SK-MEL-28
[55] = system: SK-OV-3
[56] = system: A549

`CN(C)c1ccc(/C=C(/NC(=O)c2ccccc2)c2nc3cc(Cl)ccc3[nH]2)cc1` was tested, and the GI50 [1] was 61.7 µM (inactive), the GI50 [2] was 22.4 µM (inactive) and the GI50 [3] was > 100 µM (inactive). For the same compound, the GI50 [4] was 32.7 µM (inactive), the GI50 [5] was 28 µM (inactive) and the GI50 [6] was 23.1 µM (inactive). For the same compound, the GI50 [7] was 19.1 µM (inactive), the GI50 [8] was > 100 µM (inactive) and the GI50 [9] was 55.8 µM (inactive). The GI50 [10] was 27.8 µM (inactive), the GI50 [11] was 27.5 µM (inactive) and the GI50 [12] was 18.3 µM (inactive). The GI50 [13] was 35.5 µM (inactive), the GI50 [14] was 45.1 µM (inactive) and the GI50 [15] was 35.3 µM (inactive). For the same compound, the GI50 [16] was 17.9 µM (inactive), the GI50 [17] was 34.4 µM (inactive) and the GI50 [18] was 30.3 µM (inactive). For the same compound, the GI50 [19] was 48.9 µM (inactive), the GI50 [20] was 63.1 µM (inactive) and the GI50 [21] was 33.6 µM (inactive). The GI50 [22] was 37.8 µM (inactive), the GI50 [23] was 87.3 µM (inactive) and the GI50 [24] was > 100 µM (inactive). The GI50 [25] was 16 µM (inactive), the GI50 [26] was 28.8 µM (inactive) and the GI50 [27] was > 100 µM (inactive). For the same compound, the GI50 [28] was 72.3 µM (inactive), the GI50 [29] was 30.8 µM (inactive) and the GI50 [30] was 27.7 µM (inactive). For the same compound, the GI50 [31] was 8.51 µM (inactive), the GI50 [32] was 20.9 µM (inactive) and the GI50 [33] was 37.1 µM (inactive). The GI50 [34] was 18.5 µM (inactive), the GI50 [35] was 30.1 µM (inactive) and the GI50 [36] was 47.9 µM (inactive). For the same compound, the GI50 [37] was 2.42 µM (inactive), the GI50 [38] was 64.4 µM (inactive) and the GI50 [39] was 32.4 µM (inactive). For the same compound, the GI50 [40] was 28.6 µM (inactive), the GI50 [41] was 16.6 µM and the GI50 [42] was 26 µM (inactive). For the same compound, the GI50 [43] was 18.6 µM (inactive), the GI50 [44] was 21.6 µM (inactive) and the GI50 [45] was 20.7 µM (inactive). For the same compound, the GI50 [46] was 36 µM (inactive), the GI50 [47] was 30.2 µM (inactive) and the GI50 [48] was 22 µM (inactive). For the same compound, the GI50 [49] was 0.0123 µM (active), the GI50 [50] was 15.6 µM (inactive) and the GI50 [51] was 19 µM (inactive). The GI50 [52] was 10.4 µM (inactive), the GI50 [53] was 20.3 µM (inactive) and the GI50 [54] was 83.9 µM (inactive). For the same compound, the GI50 [55] was 52.6 µM (inactive) and the GI50 [56] was 63.2 µM (inactive).
